Experimental data: patent US12415830B2, “Steroid compound, and use thereof and preparation method therefor” (Chengdu Kanghong Pharmaceutical Co Ltd, priority 2019, dated 2025)

Assay: Pharmacokinetics in brain and plasma after dosing
Type: in vivo, CD-1 mice
Procedure: KH022 in the present invention and the control described in example 56
The experimental animals are CD-1 mice.
Preparation of test compounds with 30% SBECD in water for intragastric administration. On the first day of the experiment, the animals in the first group are […] with the solution of KH022 or the control with the dosage of 5 mL/kg; before the administration, the animals were weighed, and the administration volume was calculated according to the body weight. Whole blood samples (about 0.03 ml per group) were collected at a specified time by saphenous vein puncture (or other suitable collection locations). Blood samples were immediately processed for plasma by centrifugation at approximately 4° C., 3,200 g for 10 min, quickly placed in dry ice, and kept below −20° C. until LC/MS/MS analysis. At each time point, animals were euthanized using CO2 and then brain tissue was collected, rinsed and dried with physiological saline, and homogenized with 4 times the brain weight (g) volume of 15 mM PBS (pH7.4):MeOH=2:1. After homogenization, samples were transferred to labeled centrifuge tubes and quickly placed in dry ice, stored at or below −20° C. for LC-MS/MS analysis.
The concentrations of the test compound in dose formulation samples was determined by the LC/UV, and the calibration curve contains at least 6 calibration standards, R^2≥0.999. The concentrations of the test compound in biological matrix was determined by the LC/MS/MS method. The retention time of test compounds or internal standards, chromatogram acquisition and chromatogram integration were processed by software Analyst (Applied Biosystems), and data statistics were processed by software Watson LIMS (Thermo Fisher Scientific) or Analyst (Applied Biosystems). The unit of the analyte concentration in the sample is ng/ml, with 3 significant digits reserved, and all values expressed in percentages (such as % deviation and % coefficient of variation, etc.) were kept to one decimal place. […]

SMILES | content in the mouse brain relative to the control (2h, same dosage) | clearance in the mouse brain compared with the control (same dosage) | detection in the brain (mouse brain, 8h)
C[C@@]1(O)CC[C@@]2(C)[C@@H](CC[C@@H]3[C@@H]2CC[C@]2(C)[C@@H](C(=O)Cn4ncnn4)CCC[C@@H]32)C1 [KH022] | 2.5 times | cleared more slowly | 
C[C@@]1(O)CC[C@H]2[C@H](CC[C@@H]3[C@@H]2CC[C@]2(C)[C@@H](C(=O)Cn4cc(C#N)cn4)CC[C@@H]32)C1 [The control, reference compound] |  |  | no detection
